Test results published in US11058661B2, “Compositions and methods for lowering triglycerides in a subject on concomitant statin therapy and having hsCRP levels of at least about 2 mg/L” (priority 2018, dated 2021).

Tested on: statin-treated patients with fasting TG ≥200 and <500 mg/dL and baseline hsCRP ≥2.0 mg/L
Experiment: ANCHOR post-hoc subgroup: lipid parameters, lipoproteins, markers of oxidation and inflammation
Type: in vivo, human
Conditions: for reduction of TG compared with placebo: printed as a reduction
Protocol: A multi-center, placebo-controlled, randomized, double-blind, 12-week study is performed to evaluate the efficacy and safety of >96% E-EPA in patients with fasting triglyceride levels ≥200 mg/dl and <500 mg/dl despite statin therapy (the mean of two qualifying entry values needs to be ≥185 mg/dl and at least one of the values needs to be ≥200 mg/dl). The primary objective of the study is to determine the efficacy of >96% E-EPA 2 g daily and 4 g daily, compared to placebo, in lowering fasting TG levels in patients with high risk for cardiovascular disease and with fasting TG levels ≥200 mg/dL and <500 mg/dL, despite treatment to LDL-C goal on statin therapy.
The population for this study is men and women >18 years of age with a body mass index ≤45 kg/m^2 with fasting TG levels greater than or equal to 200 mg/dl and less than 500 mg/dl and on a stable does of statin therapy (with or without ezetimibe). The statin must be atorvastatin, rosuvastatin or simvastatin. The dose of statin must be stable for ≥4 weeks prior to the LDL-C/TG baseline qualifying measurement for randomization. The statin dose will be optimal such that the patients are at their LDL-C goal at the LDL-C/TG baseline qualifying measurements. The same statin at the same dose will be continued until the study ends.
At the end of the 4-week diet and lifestyle stabilization period or the 6-week diet and stabilization and washout period, eligible patients will enter the 2-week LDL-C and TG qualifying period and will have their fasting LDL-C and TG levels measured at Visit 2 (Week-2) and Visit 3 (Week-1). Eligible patients must have an average fasting LDL-C level ≥40 mg/dL and <100 mg/dL and an average fasting TG level ≥200 mg/dL and <500 mg/dL to enter the 12-week double-blind treatment period. The LDL-C and TG levels for qualification will be based on the average (arithmetic mean) of the Visit 2 (Week-2) and Visit 3 (Week-1) values. If a patient's average LDL-C and/or TG levels from Visit 2 and Visit 3 fall outside the required range for entry into the study, an additional fasting lipid profile can be collected 1 week later at Visit 3.1. If a third sample is collected at Visit 3.1, entry into the study will be based on the average (arithmetic mean) of the values from Visit 3 and Visit 3.1.
After confirmation of qualifying fasting LDL-C and TG values, eligible patients will enter a 12-week, randomized, double-blind treatment period. At Visit 4 (Week 0), patients will be randomly assigned to 1 of the following treatment groups: • >96% E-EPA 2 g daily, • >96% E-EPA 4 g daily, or • Placebo.
>96% E-EPA is provided in 1 g liquid-filled, oblong, gelatin capsules. The matching placebo capsule is filled with light liquid paraffin and contains 0 g of >96% E-EPA. >96% E-EPA capsules are to be taken with food (i.e. with or at the end of a meal).
During the double-blind treatment period, patients will take 2 capsules (>96% E-EPA or matching placebo) in the morning and 2 capsules in the evening for a total of 4 capsules per day. • Patients in the >96% E-EPA 2 g/day treatment group will receive 1>96% E-EPA 1 g capsule and 1 matching placebo capsule in the morning and in the evening. • Patients in the >96% E-EPA 4 g/day treatment group will receive 2>96% E-EPA 1 g capsules in the morning and evening.
For TG, TC, HDL-C, LDL-C, calculated non-HDL-C, and VLDL-C, baseline will be defined as the average of Visit 4 (Week 0) and the preceding lipid qualifying visit (either Visit 3 [Week-1] or if it occurs, Visit 3.1) measurements. Baseline for all other efficacy parameters will be the Visit 4 (Week 0) measurement.
For TG, TC, HDL-C, LDL-C, calculated non-HDL-C, and VLDL-C, Week 12 endpoint will be defined as the average of Visit 6 (Week 11) and Visit 7 (Week 12) measurements.
Week 12 endpoint for all other efficacy parameters will be the Visit 7 (Week 12) measurement. […]

[1] = 4 g/day vs placebo, baseline to week 12, Hodges-Lehmann median
[2] = 4 g/day vs placebo, baseline to week 12, Hodges-Lehmann median, listed as EPA-E
[3] = 4 g/day, baseline to week 12, median

CC/C=C\C/C=C\C/C=C\C/C=C\C/C=C\CCCC(=O)OCC [Icosapent Ethyl, ethyl eicosapentaenoate]
Apo B Median Difference in % Change From Baseline vs Placebo [1]: −7.4% | Apo C-III Median Difference in % Change From Baseline vs Placebo [1]: −16.0% | HDL-C Median Difference in % Change From Baseline vs Placebo [1]: −5.2% | ICAM-1 Median Difference in % Change From Baseline vs Placebo [1]: +1.1% | IL-6 Median Difference in % Change From Baseline vs Placebo [1]: −4.2% | LDL-C Median Difference in % Change From Baseline vs Placebo [1]: −5.0% | Lp-PLA2 Median Difference in % Change From Baseline vs Placebo [1]: −19.6% | RLP-C Median Difference in % Change From Baseline vs Placebo [1]: −23.0% | TC Median Difference in % Change From Baseline vs Placebo [1]: −11.1% | TG Median Difference in % Change From Baseline vs Placebo [1]: −19.9% | VLDL-C Median Difference in % Change From Baseline vs Placebo [1]: −21.0% | VLDL-TG Median Difference in % Change From Baseline vs Placebo [1]: −22.9% | Apo C-III Median Difference in % Change From Baseline vs Placebo [2]: −16% | TG Median Difference in % Change From Baseline vs Placebo [2]: −20% | hsCRP Median Difference in % Change From Baseline vs Placebo [2]: −17.9% | Apo B Change From Baseline, % [3]: −0.5% | Apo C-III Change From Baseline, % [3]: −7.7% | HDL-C Change From Baseline, % [3]: −2.1% | ICAM-1 Change From Baseline, % [3]: +3.3% | IL-6 Change From Baseline, % [3]: −1.6% | LDL-C Change From Baseline, % [3]: +2.8% | Lp-PLA2 Change From Baseline, % [3]: −13.3% | Non-HDL-C Change From Baseline, % [3]: −4.5% | Ox-LDL Change From Baseline, % [3]: −2.9% | RLP-C Change From Baseline, % [3]: −26.3% | TC Change From Baseline, % [3]: −2.6% | VLDL-C Change From Baseline, % [3]: −11.8% | hsCRP Change From Baseline, % [3]: −10.5% | reduction of TG compared with placebo [3]: 19.9% | reduction of TG compared with placebo (4 g/day, baseline to week 12, median, listed as EPA-E): about 19.9% | Apo B End of Treatment (4 g/day, week 12, median): 93.5 mg/dL | Apo C-III End of Treatment (4 g/day, week 12, median): 14.0 mg/dL | Apo C-III End of Treatment (Table 3) (4 g/day, week 12, median): 14 mg/dL | HDL-C End of Treatment (4 g/day, week 12, median): 36.0 mg/dL | ICAM-1 End of Treatment (4 g/day, week 12, median): 300.5 ng/mL | IL-6 End of Treatment (4 g/day, week 12, median): 2.8 pg/mL | LDL-C End of Treatment (4 g/day, week 12, median): 83.5 mg/dL | Lp-PLA2 End of Treatment (4 g/day, week 12, median): 163.0 ng/mL | Non-HDL-C End of Treatment (4 g/day, week 12, median): 125.0 mg/dL | Ox-LDL End of Treatment (4 g/day, week 12, median): 54.1 U/L | TC End of Treatment (4 g/day, week 12, median): 166.0 mg/dL | VLDL-C End of Treatment (4 g/day, week 12, median): 38.0 mg/dL | VLDL-TG End of Treatment (4 g/day, week 12, median): 154.5 mg/dL | hsCRP End of Treatment (4 g/day, week 12, median): 3.7 mg/L | TG End of Treatment (4 g/day, week 12, median, fasting): 220.8 mg/dL
